According to ChEMBL document CHEMBL6109088 (J Med Chem, 2025):

How the values were obtained:
in vivo [1] = conditions: male, cynomolgus monkey, po, 10 mg/kg
in vivo [2] = conditions: male, cynomolgus monkey, iv, 1 mg/kg
in vivo [3] = conditions: male, cynomolgus monkey, plasma, iv, 1 mg/kg
in vivo [4] = conditions: male, cynomolgus monkey, po, 10 mg/kg; remark: listed apart in the source
in vivo [5] = conditions: male, Wistar Hannover, rat, iv, 1 mg/kg
in vivo [6] = conditions: male, Wistar Hannover, rat, po, 10 mg/kg
in vivo [7] = conditions: male, Beagle, dog, po, 10 mg/kg
in vivo [8] = conditions: male, cynomolgus monkey, iv, 1 mg/kg; remark: listed apart in the source
in vitro [9] = conditions: human, liver microsomes
in vivo [10] = conditions: male, cynomolgus monkey, iv, 1 mg/kg; remark: listed apart in the source
in vivo [11] = conditions: male, Beagle, dog, po, 10 mg/kg; remark: listed apart in the source
in vivo [12] = conditions: male, Beagle, dog, plasma, iv, 1 mg/kg
in vivo [13] = conditions: male, Wistar Hannover, rat, po, 10 mg/kg; remark: listed apart in the source
SARS-CoV-2 = assay: microbe, parasite or virus in culture; conditions: Severe acute respiratory syndrome coronavirus 2, USA-WA1/2020, Vero C1008
in vivo [14] = conditions: male, cynomolgus monkey, po, 10 mg/kg; remark: listed apart in the source
physchem = conditions: octanol/water
in vivo [15] = conditions: male, Beagle, dog, po, 10 mg/kg; remark: listed apart in the source
in vivo [16] = conditions: male, Wistar Hannover, rat, iv, 1 mg/kg; remark: listed apart in the source
in vivo [17] = conditions: male, Wistar Hannover, rat, po, 10 mg/kg; remark: listed apart in the source
in vivo [18] = conditions: rat, po
in vitro [19] = conditions: dog, MDCK
in vivo [20] = conditions: male, Beagle, dog, iv, 1 mg/kg
in vivo [21] = conditions: male, cynomolgus monkey, po, 10 mg/kg; remark: listed apart in the source
in vivo [22] = conditions: male, Beagle, dog, iv, 1 mg/kg; remark: listed apart in the source
in vivo [23] = conditions: male, Wistar Hannover, rat, po, 10 mg/kg; remark: listed apart in the source
in vivo [24] = conditions: male, Wistar Hannover, rat, iv, 1 mg/kg; remark: listed apart in the source
in vivo [25] = conditions: male, Wistar Hannover, rat, plasma, iv, 1 mg/kg
in vivo [26] = conditions: male, Wistar Hannover, rat, iv, 1 mg/kg; remark: listed apart in the source
in vivo [27] = conditions: male, Wistar Hannover, rat, po, 10 mg/kg; remark: listed apart in the source

CC(C)[C@H](NC(=O)C(F)(F)F)C(=O)N1C[C@H]2[C@@H]([C@H]1C(=O)N[C@@H](C[C@@H]1CCNC1=O)C(=O)c1nc3ccccc3s1)C2(C)C
AUC(0-inf) (in vivo [1]): 505 ng·h/mL
half-life (in vivo [2]): 64.8 min
clearance (in vivo [3]): 26 mL/min/kg
Cmax (in vivo [4]): 331 ng/mL
half-life at 4 h (in vivo [5]): 408 min
AUC(0-inf) at 4 h (in vivo [6]): 2310 ng·h/mL
Tmax (in vivo [7]): 45 min
Vd (in vivo [8]): 0.58 L/kg
microsomal CLint (in vitro [9]): 30.3 µL/min/mg
AUC(0-inf) (in vivo [10]): 977 ng·h/mL
Cmax (in vivo [11]): 383 ng/mL
clearance (in vivo [12]): 20.7 mL/min/kg
Cmax at 4 h (in vivo [13]): 521 ng/mL
EC50 (SARS-CoV-2): 85.3 nM
Tmax (in vivo [14]): 1.5 h
logD (physchem): 3
half-life (in vivo [15]): 266 min
AUC(0-inf) at 4 h (in vivo [16]): 632 ng·h/mL
bioavailability at 4 h (in vivo [17]): 54.3%
bioavailability (in vivo [18]): 54%
Papp A→B (in vitro [19]): 13.1 ×10⁻⁶ cm/s
Vd (in vivo [20]): 1.1 L/kg
bioavailability (in vivo [21]): 7.85%
half-life (in vivo [22]): 54 min
half-life at 4 h (in vivo [23]): 203 min
Vd at 4 h (in vivo [24]): 2.16 L/kg
clearance at 4 h (in vivo [25]): 31 mL/min/kg
AUC(0-inf) at 4 h (in vivo [26]): 538 ng·h/mL
Tmax at 4 h (in vivo [27]): 40.2 min

CC(C)[C@H](NS(C)(=O)=O)C(=O)N1C[C@H]2[C@@H]([C@H]1C(=O)N[C@@H](C[C@@H]1CCNC1=O)C(=O)c1nc3ccccc3s1)C2(C)C
microsomal CLint (in vitro [9]): 70 µL/min/mg
EC50 (SARS-CoV-2): 909 nM
logD (physchem): 2.4
bioavailability (in vivo [18]): 7%
Papp A→B (in vitro [19]): 1.7 ×10⁻⁶ cm/s

CC(C)[C@H](NC(=O)C(F)(F)F)C(=O)N1C[C@H]2[C@@H]([C@H]1C(=O)N[C@@H](C[C@@H]1CCNC1=O)C(=O)c1nc3cc(C(F)(F)F)ccc3s1)C2(C)C
microsomal CLint (in vitro [9]): 45.3 µL/min/mg
EC50 (SARS-CoV-2): 64.8 nM
Papp A→B (in vitro [19]): 8.8 ×10⁻⁶ cm/s

CN(C)C(=O)N[C@H](C(=O)N1C[C@H]2[C@@H]([C@H]1C(=O)N[C@H](C#N)C[C@@H]1CCNC1=O)C2(C)C)C(C)(C)C
microsomal CLint (in vitro [9]): 22.2 µL/min/mg
EC50 (SARS-CoV-2): 1780 nM
Papp A→B (in vitro [19]): 0.383 ×10⁻⁶ cm/s

CC(C)[C@H](NC(=O)C(F)(F)F)C(=O)N1C[C@H]2[C@@H]([C@H]1C(=O)N[C@@H](C[C@@H]1CCNC1=O)C(=O)c1nc3ccccc3o1)C2(C)C
microsomal CLint (in vitro [9]): 7.3 µL/min/mg
EC50 (SARS-CoV-2): 207 nM
bioavailability (in vivo [18]): 18%
Papp A→B (in vitro [19]): 2.1 ×10⁻⁶ cm/s

CC(C)(C)[C@H](NS(C)(=O)=O)C(=O)N1C[C@H]2[C@@H]([C@H]1C(=O)N[C@H](C#N)C[C@@H]1CCNC1=O)C2(C)C
microsomal CLint (in vitro [9]): 11.4 µL/min/mg
EC50 (SARS-CoV-2): 540 nM
bioavailability (in vivo [18]): < 1%
Papp A→B (in vitro [19]): < 0.193 ×10⁻⁶ cm/s

COc1ccc2nc(C(=O)[C@H](C[C@@H]3CCNC3=O)NC(=O)[C@@H]3[C@@H]4[C@H](CN3C(=O)[C@@H](NC(=O)C(F)(F)F)C(C)C)C4(C)C)sc2c1
microsomal CLint (in vitro [9]): 20.7 µL/min/mg
EC50 (SARS-CoV-2): 611 nM
Papp A→B (in vitro [19]): 13.8 ×10⁻⁶ cm/s

CC(C)[C@H](NC(=O)C(F)(F)F)C(=O)N1C[C@H]2[C@@H]([C@H]1C(=O)N[C@@H](C[C@@H]1CCNC1=O)C(=O)c1noc(-c3ccccc3)n1)C2(C)C
microsomal CLint (in vitro [9]): 40.5 µL/min/mg
EC50 (SARS-CoV-2): 194 nM
Papp A→B (in vitro [19]): 3.5 ×10⁻⁶ cm/s

CC(C)[C@H](NC(=O)C(F)(F)F)C(=O)N1C[C@H]2[C@@H]([C@H]1C(=O)N[C@@H](C[C@@H]1CCNC1=O)C(=O)c1noc(C(C)(C)C)n1)C2(C)C
microsomal CLint (in vitro [9]): < 7 µL/min/mg
EC50 (SARS-CoV-2): 625 nM
Papp A→B (in vitro [19]): 0.5 ×10⁻⁶ cm/s

COc1cccc2[nH]c(C(=O)N[C@@H](CC(C)(C)C)C(=O)N[C@@H](C[C@@H]3CCNC3=O)C(=O)c3nc4ccccc4s3)cc12
microsomal CLint (in vitro [9]): 350 µL/min/mg
EC50 (SARS-CoV-2): 383 nM
logD (physchem): 4
bioavailability (in vivo [18]): < 1%
Papp A→B (in vitro [19]): 4.3 ×10⁻⁶ cm/s

CC(C)(C)[C@H](NC(=O)CC(F)(F)F)C(=O)N1C[C@H]2[C@@H]([C@H]1C(=O)N[C@H](C#N)C[C@@H]1CCNC1=O)C2(C)C
microsomal CLint (in vitro [9]): 12.7 µL/min/mg
EC50 (SARS-CoV-2): 850 nM
Papp A→B (in vitro [19]): 0.916 ×10⁻⁶ cm/s

COc1cccc2[nH]c(C(=O)N[C@@H](CC(C)C)C(=O)N[C@@H](C[C@@H]3CCNC3=O)C(=O)CO)cc12 [PF-00835231]
microsomal CLint (in vitro [9]): 7 µL/min/mg
logD (physchem): 1.7
bioavailability (in vivo [18]): < 0.5%
Papp A→B (in vitro [19]): < 0.207 ×10⁻⁶ cm/s
